{GalNAc3} = triantennary N-acetylgalactosamine conjugate
Columns and labels:
[1] = Body weight change in Pnpla3^148M/M knock-in mice fed a NASH-inducing diet; format: in vivo, mouse; details: Pnpla3^148M/M mice, NASH diet 36 weeks, treatment last 14 weeks; ASO 5 mg/kg/week s.c.; Cotadutide 1 nmol/kg daily s.c.; FIG. 1A
Experimental: All animal experiments were performed with humane care and were approved by the Gothenburg Ethics Committee for Experimental Animals in Sweden. The holding facility has received full accreditation from the Association for Assessment and Accreditation of Laboratory Animal Care (AAALAC). The human PNPLA3 […] mutation was introduced into the mouse Pnpla3 gene by replacing the isoleucine codon with a methionine codon in amino acid position 148 of the mouse Pnpla3 gene using homologous recombination as described before (Lindén et al Mol Metab, 2019, DOI: 10.1016/j.molmet.2019.01.013). Heterozygous Pnpla3^148I/M mice were intercrossed to generate experimental homozygous Pnpla3^148M/M knock-in mice for the pharmacology study. […]
Male Pnpla3^148M/M mice (6-8 weeks of age) were fed a diet high in fat (40 kcal % fat (non-trans fat Primex Shortening), fructose (20 kcal %) and cholesterol (2%) (NASH diet; D16022301, Research Diets, New Brunswick, NJ) for 22 weeks. The mice were then assigned to study groups based on body weight, and fed the same NASH diet and dosed with either 1) control ASO+saline, 2) Pnpla3 ASO+saline, 3) control ASO+Cotadutide, or 4) Pnpla3 ASO+Cotadutide for 14 weeks. […] Body weights were recorded during the study. […]

[2] = system: Pnpla3^148M/M mice fed a NASH-inducing diet; test: NAFLD activity score (NAS) and inflammation score from liver histology; format: in vivo, mouse; details: 14 weeks treatment, FIG. 4
Experimental: (§1) Male Pnpla3^148M/M mice (6-8 weeks of age) were fed a diet high in fat (40 kcal % fat (non-trans fat Primex Shortening), fructose (20 kcal %) and cholesterol (2%) (NASH diet; D16022301, Research Diets, New Brunswick, NJ) for 22 weeks. The mice were then assigned to study groups based on body weight, and fed the same NASH diet and dosed with either 1) control ASO+saline, 2) Pnpla3 ASO+saline, 3) control ASO+Cotadutide, or 4) Pnpla3 ASO+Cotadutide for 14 weeks. The ASOs were dosed at 5 mg/kg/week administered by two subcutaneous injections per week with saline as vehicle. Cotadutide was dosed at 1 nmol/kg administered by daily subcutaneous injections with saline as vehicle. […] Body weights were recorded during the study. […]
The NAFLD activity score (NAS) was determined according to the method reported by Kleiner et al (Kleiner et al Hepatology, 2005, DOI: 10.1002/hep.20701). […]
Differences between treatment groups were examined using 1-way ANOVA followed by Tukey's post-hoc tests (GraphPad Prism v.8.0.1., GraphPad Software, CA). Differences between treatment groups for the NAFLD activity score (NAS) derived from liver histology were analyzed by ordinal regression analyses followed by correction of family-wise error rate using the Šidák method. […]

[3] = system: Pnpla3^148M/M mice fed a NASH-inducing diet; test: Liver fibrosis as liver collagen 1A1 content (immunohistochemistry); format: in vivo, mouse; details: 14 weeks treatment, compared to control ASO, FIG. 5
Experimental: as §1
Four μm thick formaldehyde-fixed, paraffin-embedded mouse liver sections (one lover section per mouse) were routinely stained with hematoxylin-eosin (HE). […] Slides were scanned into Panoramic Scan II (3Dhistech, Hungary), and digital images were analyzed using the image analysis program Visiopharm (version 2020.03.0.7300, Visiopharm, Hørsholm, Denmark) by detecting stained area per total section area for Galectin-3 or Collagen 1A1.

[4] = system: mouse Pnpla3 mRNA; test: Liver Pnpla3 mRNA by qPCR in Pnpla3^148M/M mice on NASH diet; format: in vivo; details: 14 weeks treatment, ASO 5 mg/kg/week s.c., FIG. 1B
Experimental: Male Pnpla3^148M/M mice (6-8 weeks of age) were fed a diet high in fat (40 kcal % fat (non-trans fat Primex Shortening), fructose (20 kcal %) and cholesterol (2%) (NASH diet; D16022301, Research Diets, New Brunswick, NJ) for 22 weeks. The mice were then assigned to study groups based on body weight, and fed the same NASH diet and dosed with either 1) control ASO+saline, 2) Pnpla3 ASO+saline, 3) control ASO+Cotadutide, or 4) Pnpla3 ASO+Cotadutide for 14 weeks. The ASOs were dosed at 5 mg/kg/week administered by two subcutaneous injections per week with saline as vehicle. Cotadutide was dosed at 1 nmol/kg administered by daily subcutaneous injections with saline as vehicle. […] Body weights were recorded during the study. At sacrifice, unfasted mice were euthanized with isoflurane (Forene, Abbot Scandinavia AB, Sweden), blood was collected and plasma isolated, livers were collected, and pieces (same position in the left lateral lobe for all mice) were fixed with 4% formaldehyde in PBS for histology or snap-frozen in liquid N2 and stored at −80° C.
RNA was isolated from snap-frozen liver tissue using the RNeasy Mini Kit (Qiagen, Germany). The cDNA templates were generated by reverse transcription with a cDNA kit (ThermoFisher Scientific, Stockholm, Sweden) and used for real-time quantitative PCR with the QuantStudio 7 Flex instrument (Applied Biosystems, Stockholm, Sweden). […]

CCCCCCCCCCCCCCCC(=O)N[C@@H](CCC(=O)NCCCC[C@H](NC(=O)[C@H](CC(=O)O)NC(=O)[C@H](CO)NC(=O)[C@@H](NC(=O)[C@H](Cc1ccccc1)NC(=O)[C@@H](NC(=O)CNC(=O)[C@H](CCC(N)=O)NC(=O)[C@H](CO)NC(=O)[C@@H](N)Cc1c[nH]cn1)[C@@H](C)O)[C@@H](C)O)C(=O)N[C@@H](CO)C(=O)N[C@@H](CCC(=O)O)C(=O)N[C@@H](Cc1ccc(O)cc1)C(=O)N[C@@H](CC(C)C)C(=O)N[C@@H](CC(=O)O)C(=O)N[C@@H](CO)C(=O)N[C@@H](CCC(=O)O)C(=O)N[C@@H](CCCNC(=N)N)C(=O)N[C@@H](C)C(=O)N[C@@H](CCCNC(=N)N)C(=O)N[C@@H](CC(=O)O)C(=O)N[C@@H](Cc1ccccc1)C(=O)N[C@H](C(=O)N[C@@H](C)C(=O)N[C@@H](Cc1c[nH]c2ccccc12)C(=O)N[C@@H](CC(C)C)C(=O)N[C@@H](CCC(=O)O)C(=O)N[C@@H](C)C(=O)NCC(=O)NCC(=O)O)C(C)C)C(=O)O [Cotadutide]
body weight-gain during the treatment period compared to control ASO treated animals [1]: reduced body weight-gain
NAFLD activity score (NAS) compared to control ASO treated animals [2]: reduced the NAS
liver fibrosis measured as liver collagen 1A1 content [3]: tended to reduce the liver collagen 1A1 content

Pnpla3 ASO: mouse cEt-modified 16-mer ASO targeting mouse Pnpla3 gene (5′-TATTTTTGGTGTATCC-3′, SEQ ID NO: 37), 5′-conjugated with triantennary GalNAc3 (5' {GalNAc3}, sugars by position and backbone not given here; cEt-modified)
body weight-gain during the treatment period compared to control ASO treated animals [1]: but not Pnpla3 ASO treatment reduced body weight-gain
reduction of liver Pnpla3 mRNA levels [4]: ≥ 97%
NAFLD activity score (NAS) compared to control ASO treated animals [2]: reduced the NAS
liver fibrosis measured as liver collagen 1A1 content [3]: tended to reduce liver fibrosis

— US20250122504A1, “COMBINATIONS WITH MODULATORS OF PNPLA3 EXPRESSION” (AstraZeneca AB, priority 2021, published 2025)
